According to US9625448B2, “Double caged GABA compounds, bis-CNB-GABA” (The Trustees of Princeton University, priority 2014, dated 2017):
Read-outs that look alike come from different tables or passages of the source.

What was measured:
[1] = system: cerebellar molecular layer interneurons; assay: Photolysis-evoked GABAergic currents in cerebellar molecular layer interneurons; assay type: cell-based
Procedure: The biological properties of our synthetic bis-CNB-GABA were evaluated using whole-cell patch recording from cerebellar molecular layer interneurons.
FIGS. 42A-42E illustrate physiological responses to photolysis of bis-CNB-GABA. FIG. 42A illustrates a cerebellar molecular layer interneuron visualized using Alexa 488 in the patch recording electrode solution. Referring to FIG. 42A, bis-CNB-GABA (0.6 mM) was photolyzed with a 405 nm laser spot in 3 different locations (indicated by 1, 2 and 3). Still referring to FIG. 42A, laser-evoked GABAergic currents are shown on the right panel. Still referring to FIG. 42A, gray traces show individual sweeps and black traces are averages. Still referring to FIG. 42A, the gray sweep at bottom indicates the laser flash (1 ms duration, intensity 5 mW) as recorded using a photodiode. FIG. 42B illustrates bis-CNB-GABA (1.4 mM) was photolyzed with a […] LED at progressively higher flash energies (0.25-1.1 mW, 5-50 ms, 1.25-55 μJ). FIG. 42C illustrates the same experiment as shown in FIG. 42B with Responses to mono-CNB-GABA (50 μM). FIG. 42D illustrates normalized current as a function of relative LED flash energies plotted on a log-log scale. FIG. 42E illustrates laser-evoked whole-cell current recorded in the absence and presence of 3 μM gabazine, a GABA receptor antagonist. Referring to FIG. 42E, a larger flash energy was used in the presence of gabazine.
Referring to FIG. 42A, molecular layer interneurons receive excitatory glutamatergic synapses, as well as inhibitory GABAergic synapses that show a pronounced level of spontaneous activity (gray traces). The effects of bis-CNB-GABA on these synaptic currents were tested.
By contrast, the relationship for mono-O-CNB-GABA was close to linear (log-log slope=1.3±0.1, n=3). For these measurements, evoked currents were normalized to the maximum current observed in the same neuron. […] These power laws are consistent with a process in which each molecule of bis-CNB-GABA must cumulatively undergo two uncaging reactions in order to release an active GABAA agonist.
To test whether bis-CNB-GABA-evoked responses resemble physiological events in their kinetics, we measured the kinetic properties of flash responses. […] This rise time is consistent with the dark reaction time (1.5 ms) for the slower cage, N-mono-CNB-GABA (Wieboldt, R.; Ramesh, D.; Carpenter, B. K; Hess, G. P. Biochemistry, 1994, 33, 1526-1533, which is incorporated herein by reference as if fully set forth). […] These rates approach those of spontaneous events and are among the fastest described for other GABA cages. […]

[2] = system: GABAA receptors; conditions: cited from earlier work
[3] = system: GABAA receptors; conditions: cited from earlier work; remark: listed apart in the source
[4] = system: GABAA receptors; assay: Miniature GABA synaptic currents in molecular layer interneurons (Trigo et al., 2009); assay type: cell-based
Procedure: (§1) FIG. 26 illustrates whole-cell patch clamp recordings from dentate granule cells of rat hippocampal slices reported by Molnár & Nadler, 2000. […] Holding potential of −80 mV. (Molnár & Nadler, 2000 European Journal of Pharmacology, 391, 255-262, which is incorporated herein by reference as if fully set forth, which is incorporated herein by reference as if fully set forth). […] FIG. 27 illustrates summary of the amplitudes of the current evoked by puff of 100 μM GABA and caged compounds around the soma reported by Matsuzaki et al., 2010. The amplitude was normalized to the mean current that was induced by GABA application alone. Left panel illustrates control (n=7); +10 mM CNI-GABA (n=7). Central panel illustrates control (n=10); +0.4 mM CDNI-GABA (n=10), +1.35 mM CDNI-GABA (n=14); +10 mM CDNI-GABA (n=10). Right panel illustrates control (n=9); +1 mM MNI-Glu (n=4); +10 mM MNI-Glu (n=9). ** p<0.0001, * p<0.01 (Matsuzaki et al., 2010 Nature Chemical Biology, 6, 255-257, which is incorporated herein by reference as if fully set forth). […] Though this is a much higher concentration compared to the IC50 for CNB-GABA, CDNI requires a higher concentration when photolyzed in vitro because of its two-photon sensitivity. Because 10 mM is the concentration used for two-photon uncaging, this antagonism is still practically limiting. […] FIG. 28 illustrates the effects of NI-caged GABA and DPNI-GABA on amplitudes of miniature GABA synaptic currents as reported by Trigo et al., 2009. Referring to FIG. 28 (left), this panel illustrates recordings of miniature synaptic GABA currents in molecular layer interneurons before and during application of 1 mM DPNI-GABA. The initial inward current on diluting the cage into the bath was attributable to contaminating levels of GABA. Referring to FIG. 28 (right), the panel illustrates summary histogram from five cells of the block of spontaneous GABA currents by DPNI-GABA at different concentrations in the bath. (Trigo et al., 2009 Journal of Neuroscience Methods, 181, 159-169, which is incorporated herein by reference as if fully set forth).

[5] = aqueous solution; literature; cited from earlier work
[6] = system: cerebellar interneurons; conditions: FIG. 43A, 1 mM; see Trigo et al., 2009; cited from earlier work
[7] = cited from earlier work
[8] = cited from earlier work; remark: listed apart in the source
[9] = N-position; Wieboldt et al., 1994; cited from earlier work
[10] = target: GABAA receptors; conditions: Table 2; Matsuzaki et al. 2010; read-out: IC50 in blocking synaptic GABAA currents; cited from earlier work
[11] = system: GABAA receptors; assay: Current evoked by puff of 100 μM GABA and caged compounds around the soma (Matsuzaki et al., 2010); assay type: cell-based; conditions: for IC33: calculated, q=0.33
Procedure: as §1

With `COc1ccc(-c2ccc(=N)n(CCCC(=O)O)n2)cc1` [gabazine] the “effect on currents produced by photolysis of bis-CNB-GABA” value ([1]; 3 μM gabazine) was “reversibly eliminated” and the “effect on responses to photolysis of bis-CNB-GABA” value ([1]; 3 M gabazine) was “eliminated these responses”.
For `COc1ccc([N+](=O)[O-])c2c1CCN2C(=O)CCCN` [MNI-GABA], the “effect on GABAA receptors” value ([2]; less than CNB-GABA, Palma-Cerda et al., 2012) is given as “antagonistic effect”.
For `NCCCC(=O)N1CCc2c(OC(COP(=O)(O)O)COP(=O)(O)O)ccc([N+](=O)[O-])c21` [DPNI-GABA], the decrease in response ([3]; 1 mM) is given as > 50%, the IC50 ([3]; Table 2, cerebellar interneurons, read-out: IC50 in blocking synaptic GABAA currents) is given as 500 µM and the “effect on rise times of IPSCs” value ([3]; Trigo et al., 2009) is given as “prolongs rise times”. For the same compound, the “concentration showing 33% reduction” value [4] was 230 µM, the IC33 ([4]; Table 1, calculated, q=0.33) was 0.23 mM and the IC50 ([4]; from data of Trigo et al., 2009) was 470 µM. The Stability [5] was “Stable” and the “effect on inward holding current compared with mono-O-CNB-GABA” value [6] was “similar, though less pronounced”.
In the case of `O=C(O)CC[C@H](NC(=O)OCc1cc(=O)oc2cc(O)c(Br)cc12)C(=O)O` [Bhc-glutamate], the “product of extinction coefficient and quantum yield (φ×ε)” value ([7]; caged on the amine) is given as 331 M⁻¹ cm⁻¹, the quantum yield ([7]; caged on the amine) is given as 0.019 and the “product of extinction coefficient and quantum yield (ε×Φ)” value ([7]; literature values) is given as 371 M⁻¹ cm⁻¹. For the same compound, the quantum yield ([7]; literature values) was 0.019, the extinction coefficient ([8]; at 368 nm, caged on the amine) was 17,470 M^−1 cm^−1 and the extinction coefficient ([8]; at 369 nm, caged at the carboxylate) was 19,550 M^−1 cm^−1.
For `O=C(O)CCCNC(C(=O)O)c1ccccc1[N+](=O)[O-]` (stereo not shown) [N-mono-CNB-GABA], the dark reaction time [9] is given as 1.5 ms.
In the case of `CP(C)C.F[P-](F)(F)(F)(F)F.F[P-](F)(F)(F)(F)F.NC(CCC(=O)[O-])C(=O)[O-].[Na+].[Na+].[Ru+2].c1ccc(-c2ccccn2)nc1.c1ccc(-c2ccccn2)nc1` [RuBi-glutamate], the IC50 ([2]; Table 2 footnote 2, Fino et al., 2009, read-out: IC50 in blocking synaptic GABAA currents) is listed as 300 µM.
For `NCCCC(=O)N1CCc2c(OCC(=O)O)c([N+](=O)[O-])cc([N+](=O)[O-])c21` [CDNI-GABA], the IC50 [10] is given as 600 µM, the Stability [5] is given as “Stable” and the “concentration showing 33% reduced response” value [11] is given as 220 µM. For the same compound, the IC33 ([11]; Table 1) was 0.22, the IC50 ([11]; from data of Matsuzaki et al., 2010) was 450 µM and the “product of extinction coefficient and quantum yield (ε×Φ)” value ([7]; literature values) was 3,840 M^−1 cm^−1. The quantum yield ([7]; literature values) was 0.6 and the extinction coefficient ([8]; at 330 nm) was 6,400 M^−1 cm^−1.
For `COc1ccc([N+](=O)[O-])c2c1CCN2C(=O)CC[C@H](N)C(=O)O` [MNI-glu], the IC50 ([11]; Table 1, calculated from data of Matsuzaki et al. 2010) is given as 1100 µM, the IC33 ([11]; Table 1) is given as 0.37 and the quantum yield ([7]; literature values) is given as 0.085.
In the case of `F[P-](F)(F)(F)(F)F.NCCCC(=O)[O-].[Ru+2].c1ccc(-c2ccccn2)nc1.c1ccc(-c2ccccn2)nc1.c1ccc(P(c2ccccc2)c2ccccc2)cc1` [RuBi-GABA, Ruthenium-bipyridine-triphenylphosphine-GABA], the “concentrations at which antagonistic GABAA receptor activity is exhibited” value ([2]; Verde et al., 2008) is given as “above 20 μM”.
